In patent US8846655B2, “4-substituted-2-phenoxy-phenylamine delta opioid receptor modulators” (Janssen Pharmaceutica, NV, priority 2009, dated 2014):
pEC50, pKi: −log10 of the molar value.

What was measured:
delta opioid receptor [1] = target: T1, delta opioid receptor (Mus musculus, UniProt P32300); assay: [35S]GTPγS binding assay in NG108-15 cell membranes (delta opioid functional assay), 200 nM screen; type: biochemical; conditions: 200 nM compound; relative to calculated max of SNC80 dose response
T1 construct: NG108-15 cell membranes were purchased from Applied Cell Sciences (Rockville, Md.); host or cells: NG108-15 cell membranes (purchased)
Method: Methods: NG108-15 cell membranes were purchased from Applied Cell Sciences (Rockville, Md.). 5 mg/mL of membrane protein suspended in 10 mM TRIS-HCl pH 7.2, 2 mM EDTA, 10% sucrose. Membranes were maintained at 4-8° C. A 1 mL volume of membranes was added into 10 mL cold binding assay buffer. The assay buffer contained 50 mM Tris, pH 7.6, 5 mM MgCl2, 100 mM NaCl, 1 mM DTT and 1 mM EGTA. The membrane suspension was homogenized twice with a Polytron, and centrifuged at 3000 rpm for 10 min. The supernatant was then centrifuged at 18,000 rpm for 20 min. Ten mL assay buffer was added into the pellet containing tube. The pellet and buffer were mixed with a Polytron.
Incubation procedure: The pellet membranes (75 μg/mL) were preincubated with SPA (10 mg/mL) at 25° C. for 45 min in the assay buffer. The SPA (5 mg/mL) coupled with membranes (37.5 μg/mL) was then incubated with 0.1 nM [^35S] GTPγS in the same Tris buffer containing 100 μM GDP in total volume of […]. 200 nM of receptor agonists was used to stimulate [^35S]-GTPγS binding. The basal binding was tested in the absence of agonists and non-specific binding was tested in the presence of 10 μM unlabeled GTPγS.
Data % of Basal=(stimulated−non specific)*100/(basal−non specific). Relative Efficacy of a compound at 200 nM=(% of Basal of test compound at 200 nM)/(Calculated Max of SNC80 dose response. Curve in prism).

δ-opioid receptor = target: T2, δ-opioid receptor (Mus musculus, UniProt P32300); assay: [35S]GTPγS δ-opioid receptor functional assay (EC50, relative efficacy, % inhibition); type: biochemical
T2 construct: NG108-15 cell membranes were purchased from Applied Cell Sciences (Rockville, Md.)
Method: Incubation procedure: The pellet membranes (75 μg/mL) were preincubated with SPA (10 mg/mL) at 25° C. for 45 min in the assay buffer. […] GTPγS in the same Tris buffer containing 100 μM GDP in total volume of 200 pt. 200 nM of receptor agonists was used to stimulate [^35S]-GTPγS binding. The basal binding was tested in the absence of agonists and non-specific binding was tested in the presence of 10 μM unlabeled GTPγS.
Compounds were tested for function as antagonists by evaluating their potential to inhibit agonist-stimulated GTPγS binding. Radioactivity was quantified on a Packard TopCount.

mu opioid receptor = target: T3, mu opioid receptor (Rattus norvegicus, UniProt P33535); assay: Rat brain mu opioid receptor binding assay; conditions: rat forebrain membranes, ~0.8 nM [3H]DAMGO; read-out: μ-binding Ki
T3 construct: the forebrains were homogenized in Tris buffer in a Teflon®-glass homogenizer; from tissue; host or cells: rat forebrain membrane homogenate (male Wistar rats)
Method: Procedure: Male, Wistar rats (150-250 g, VAF, Charles River, Kingston, N.Y.) were killed by CO2, and their brains were removed and placed immediately in ice cold Tris HCl buffer (50 mM, pH 7.4). The forebrains were separated from the remainder of the brain by a coronal transection, beginning dorsally at the colliculi and passing ventrally through the midbrain-pontine junction. After dissection, the forebrains were homogenized in Tris buffer in a Teflon®-glass homogenizer. The homogenate was diluted to a concentration of 1 g of forebrain tissue per 80 mL Tris and centrifuged at 39,000×g for 10 min. The pellet was resuspended in the same volume of Tris buffer containing 5 mM MgCl2 with several brief pulses from a Polytron homogenizer. This particulate preparation was used for the mu opioid binding assays.

mice = assay: Mouse Graded Abdominal Irritant Test (GrAIT); type: in vivo; conditions: 10% Solutol, 30 min pretreatment
Method: Test compound or vehicle was administered s.c. or p.o. to mice. Following the pretreatment time, an i.p. injection of 0.6% of acetic acid in 0.5 mL was administered. Five min after acetic acid administration, mice were placed into clear chambers and were continuously observed for 5 min. Behavioral responses including twisting and elongation of the body that extended through the hindlimbs were counted and averaged for the group of animals over the observation period.

delta opioid receptor [2] = target: T4, delta opioid receptor (Rattus norvegicus, UniProt P33533); assay: Rat brain delta opioid receptor binding assay; conditions: rat forebrain membranes, 0.25 nM [3H]naltrindole; read-out: δ-binding (Naltrindole ligand) Ki
T4 construct: the forebrains were homogenized in Tris buffer in a Teflon®-glass homogenizer; from tissue; host or cells: rat forebrain membrane homogenate (male Wistar rats)
Method: Procedure: Male, Wistar rats (150-250 g, VAF, Charles River, Kingston, N.Y.) were killed by CO2, and their brains were removed and placed immediately in ice cold Tris HCl buffer (50 mM, pH 7.4). The forebrains were separated from the remainder of the brain by a coronal transection, beginning dorsally at the colliculi and passing ventrally through the midbrain-pontine junction. After dissection, the forebrains were homogenized in Tris buffer in a Teflon®-glass homogenizer. The homogenate was diluted to a concentration of 1 g of forebrain tissue per 80 mL Tris and centrifuged at 39,000×g for 10 min. The pellet was resuspended in the same volume of Tris buffer containing 5 mM MgCl2 with several brief pulses from a Polytron homogenizer. […] To each sample area 2×50 μL of Betaplate Scint scintillation fluid (LKB) was added and the radioactivity was quantified on a LKB (Wallac) 1205 BetaPlate liquid scintillation counter.
Analysis: The data from the scintillation counter were used to calculate either the % inhibition compared to control binding (when only a single concentration of test compound was evaluated) or a K1 value (when a range of concentrations was tested). Percent inhibition was calculated as: [(total dpm-test compound dpm)/(total dpm-nonspecific dpm)]*100. Kd and Ki values were calculated using GraphPad PRISM data analysis program.

T2 sequence (P32300 whole entry): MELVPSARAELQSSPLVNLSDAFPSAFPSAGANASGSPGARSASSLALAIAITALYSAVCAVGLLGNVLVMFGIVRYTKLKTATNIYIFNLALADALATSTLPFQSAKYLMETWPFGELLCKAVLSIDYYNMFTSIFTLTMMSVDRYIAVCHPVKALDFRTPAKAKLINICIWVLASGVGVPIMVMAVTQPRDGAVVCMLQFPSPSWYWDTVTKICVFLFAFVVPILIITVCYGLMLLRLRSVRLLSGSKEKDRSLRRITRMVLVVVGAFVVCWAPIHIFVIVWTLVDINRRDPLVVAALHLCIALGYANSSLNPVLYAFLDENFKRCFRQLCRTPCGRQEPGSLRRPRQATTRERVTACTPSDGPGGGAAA
T1 sequence (P32300 whole entry): as above
T3 sequence (P33535 whole entry): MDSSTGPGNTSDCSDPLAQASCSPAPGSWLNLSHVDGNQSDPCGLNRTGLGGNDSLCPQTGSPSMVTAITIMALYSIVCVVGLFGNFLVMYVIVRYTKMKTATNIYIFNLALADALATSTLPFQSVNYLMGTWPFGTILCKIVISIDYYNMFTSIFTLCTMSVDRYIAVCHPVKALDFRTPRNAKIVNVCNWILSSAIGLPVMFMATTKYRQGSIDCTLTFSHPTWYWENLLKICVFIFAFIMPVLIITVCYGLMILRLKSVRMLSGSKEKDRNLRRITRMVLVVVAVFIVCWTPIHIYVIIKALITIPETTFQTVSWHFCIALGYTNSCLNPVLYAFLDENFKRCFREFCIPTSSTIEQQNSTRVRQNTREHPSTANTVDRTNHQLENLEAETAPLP
T4 sequence (P33533 whole entry): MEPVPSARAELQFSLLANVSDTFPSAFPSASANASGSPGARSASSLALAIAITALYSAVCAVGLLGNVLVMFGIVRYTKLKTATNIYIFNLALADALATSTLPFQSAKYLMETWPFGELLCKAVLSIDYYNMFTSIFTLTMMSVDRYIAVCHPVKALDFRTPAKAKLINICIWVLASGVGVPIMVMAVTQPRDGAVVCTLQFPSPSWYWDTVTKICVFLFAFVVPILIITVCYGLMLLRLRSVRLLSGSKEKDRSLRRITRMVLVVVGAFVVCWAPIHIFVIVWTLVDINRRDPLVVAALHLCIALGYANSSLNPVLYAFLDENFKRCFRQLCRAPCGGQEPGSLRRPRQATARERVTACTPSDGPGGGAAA

| SMILES | GTγPS δ-opioid receptor Rel Efficacy (δ-opioid receptor) | pKi (mu opioid receptor) | also measured |
| --- | --- | --- | --- |
| COc1ccc(Oc2cc(-c3cncc(F)c3)ccc2NC[C@@H]2C[C@@H](F)CN2)cc1 [Cpd 25] | 1.0217 |  | GTPγS δ-RelEfficacy @200 nM (delta opioid receptor [1]): 0.78 |
| COc1ccc(Oc2cc(-c3ccsc3)ccc2NC[C@@H]2CCCN2)cc1 [Cpd 41] |  | < 5.00 |  |
| COc1cccc(Oc2cc(-c3ccccc3)ccc2NC[C@@H]2CCCN2)c1 [Cpd 15] |  | < 5.00 |  |
| CCN(CC)C(=O)c1cccc(Oc2cc(-c3ccccc3)ccc2NC[C@@H]2CCCN2)c1 [Cpd 34] |  | < 5.00 |  |
| COc1ccc(Oc2cc(CCc3cccc(OC)c3)ccc2NC[C@@H]2CCCN2)cc1 [Cpd 4] |  | < 5.00 |  |
| COc1ccc(Oc2cc(-c3cncc(SC)c3)ccc2NC[C@@H]2C[C@@H](F)CN2)cc1 [Cpd 26] | 1.0716 |  | GTPγS δ-RelEfficacy @200 nM (delta opioid receptor [1]): 0.7 |
| CCN(CC)C(=O)c1ccc(NC[C@@H]2CCCN2)c(Oc2ccccc2OC)c1 [Cpd 11] |  | < 5.00 |  |
| Clc1cccc(Cl)c1Oc1cc(-c2ccccc2)ccc1NC[C@@H]1CCCN1 [Cpd 18] | 0.763 | < 5.00 |  |
| COc1ccc(Oc2cc(-c3cncc(C#N)c3)ccc2NC[C@@H]2C[C@@H](F)CN2)cc1 [Cpd 24, (2S,4R)-5-[4-[(4-Fluoro-pyrrolidin-2-ylmethyl)-amino]-3-(4-methoxy-phenoxy)-phenyl]-nicotinonitrile] | 1.0158 |  | GTPγS δ-RelEfficacy @200 nM (delta opioid receptor [1]): 1.01 |
| COc1ccc(Oc2cc(CCc3cccc(F)c3)ccc2NC[C@@H]2CCCN2)cc1 [Cpd 7] |  | < 5.00 |  |
| COc1ccc(Oc2cc(-c3cccnc3)ccc2NC[C@@H]2CCCN2)cc1 [Cpd 39] | 0.9245 |  |  |
| FC(F)(F)Oc1ccc(Oc2cc(-c3ccccc3)ccc2NC[C@@H]2CCCN2)cc1 [Cpd 17] |  | < 5.00 |  |
| CNCCNc1ccc(Oc2ccc(OC)cc2)cc1Oc1ccc(OC)cc1 [Cpd 63, N-[2,4-Bis-(4-methoxy-phenoxy)-phenyl]-N′-methyl-ethane-1,2-diamine] |  | < 5.00 |  |
| COc1ccc(Oc2cc(-c3cccc4ccccc34)ccc2NC[C@@H]2CCCN2)cc1 [Cpd 37] |  | < 5.00 |  |
| COc1ccc(Oc2cc(-c3ccoc3)ccc2NC[C@@H]2CCCN2)cc1 [Cpd 40] |  | < 5.00 |  |
| COc1ccc(Oc2cc(-c3ccccc3)ccc2NC[C@@H]2CCCN2)cc1 [Cpd 35, (S)-[3-(4-Methoxy-phenoxy)-biphenyl-4-yl]-pyrrolidin-2-ylmethyl-amine] |  | < 5.00 |  |
| COc1ccc(Oc2cc(-c3cncnc3)ccc2NC[C@@H]2CCCN2)cc1 [Cpd 42] |  |  | GTPγS δ-RelEfficacy @200 nM (delta opioid receptor [1]): 0.39 |
| Clc1ccc(Oc2cc(-c3ccccc3)ccc2NC[C@@H]2CCCN2)c(Cl)c1 [Cpd 22] |  | < 5.00 |  |
| CCN(CC)C(=O)CCc1ccc(NC[C@@H]2CCCN2)c(Oc2ccc(OC)cc2)c1 [Cpd 2, N,N-Diethyl-3-[3-(4-methoxyphenoxy)-4-{[(2S)-pyrrolidin-2-ylmethyl]amino}phenyl]propanamide] | 0.8333 |  |  |

| SMILES | GTγPS δ-opioid receptor Rel Efficacy (δ-opioid receptor) | pKi (mu opioid receptor) | also measured |
| --- | --- | --- | --- |
| COc1ccc(Oc2cc(-c3ccccc3)ccc2N2CCNCC2)cc1 [Cpd 46, 1-[3-(4-Methoxy-phenoxy)biphenyl-4-yl]piperazine] |  | < 5.00 |  |
| COc1ccc(Oc2cc(-c3cncc(C)c3)ccc2NC[C@@H]2C[C@@H](F)CN2)cc1 [Cpd 28] | 0.8756 |  |  |
| CCN(CC)C(=O)/C=C/c1ccc(NC[C@@H]2CCCN2)c(Oc2ccc(OC)cc2)c1 [Cpd 1, (2E)-N,N-Diethyl-3-[3-(4-methoxyphenoxy)-4-{[(2S)-pyrrolidin-2-ylmethyl]amino}phenyl]prop-2-enamide] | 0.8328 |  | # abdominal stretches (cpd) (mice; 30 mg/kg s.c.): 10.9 |
| COc1ccc(Oc2cc(CCc3ccccc3)ccc2NC[C@@H]2CCCN2)cc1 [Cpd 5] |  | < 5.00 |  |
| NC(=O)c1cccc(Oc2cc(-c3ccccc3)ccc2NC[C@@H]2CCCN2)c1 [Cpd 30] | 0.2668 |  |  |
| COC(=O)c1cccc(Oc2cc(-c3ccccc3)ccc2NC[C@@H]2CCCN2)c1 [Cpd 21] |  | < 5.00 |  |
| COC(=O)c1ccc(Oc2cc(-c3ccccc3)ccc2NC[C@@H]2CCCN2)cc1 [Cpd 20] |  | < 5.00 |  |
| COc1ccc(Oc2ccc(NC[C@@H](N)CO)c(Oc3ccc(OC)cc3)c2)cc1 [Cpd 55] |  | < 5.00 |  |
| Fc1ccc(Oc2cc(-c3ccccc3)ccc2NC[C@@H]2CCCN2)cc1 [Cpd 16] |  | < 5.00 |  |
| COc1ccc(Oc2cc(-c3cncc(OC)c3)ccc2NC[C@@H]2C[C@@H](F)CN2)cc1 [Cpd 27] |  | < 5.00 |  |
| COc1ccc(Oc2cc(-c3cncc(C#N)c3)ccc2NC[C@@H]2CCCN2)cc1 [Cpd 44] | 1.1554 |  | GTPγS δ-RelEfficacy @200 nM (delta opioid receptor [1]): 0.45 |
| Oc1ccc(Oc2cc(-c3cccnc3)ccc2NC[C@@H]2CCCN2)cc1 [Cpd 45, (S)-4-{5-Pyridin-3-yl-2-[(pyrrolidin-2-ylmethyl)-amino]-phenoxy}-phenol] | 0.627 |  |  |
| COc1ccc(Oc2cc(-c3ccncc3)ccc2NC[C@@H]2CCCN2)cc1 [Cpd 38] | 0.8323 | 5.36 | pKi (delta opioid receptor [2]): 7.81; pEC50 (δ-opioid receptor): 6.32; inhibition at 10 µM (δ-opioid receptor; read-out: GTPγS δ-opioid receptor % Inh @10 μM): 16.4% |
| N#Cc1cccc(Oc2cc(-c3ccccc3)ccc2NC[C@@H]2CCCN2)c1 [Cpd 13] |  | < 5.00 |  |
| COc1ccc(Oc2cc(CCc3ccc(F)cc3)ccc2NC[C@@H]2CCCN2)cc1 [Cpd 6] |  | < 5.00 |  |
| CCN(CC)C(=O)c1ccc(NC[C@@H]2CCCN2)c(Oc2ccc(OC)cc2)c1 [Cpd 10] |  |  | # abdominal stretches (cpd) (mice; 30 mg/kg p.o.): 19; # abdominal stretches (cpd) (mice; 30 mg/kg s.c.): 11; # abdominal stretches (cpd) (mice; 100 mg/kg p.o.): 17.9; # abdominal stretches (cpd) (mice; 300 mg/kg p.o.): 21.2 |
| O=C(O)c1cccc(Oc2cc(-c3ccccc3)ccc2NC[C@@H]2CCCN2)c1 [Cpd 32] |  | < 5.00 |  |
| c1ccc(Oc2cc(-c3ccccc3)ccc2NC[C@@H]2CCCN2)cc1 [Cpd 14] |  | < 5.00 |  |
| COc1ccc(Oc2cc(-c3cncc(F)c3)ccc2NC[C@@H]2CCCN2)cc1 [Cpd 43] | 1.0908 |  | GTPγS δ-RelEfficacy @200 nM (delta opioid receptor [1]): 0.43 |
